Source: publication PMC6270271, “Accidental Interaction between PDZ Domains and Diclofenac Revealed by NMR-Assisted Virtual Screening” (Molecules, 2013)

How the values were obtained:
[1] = biological target: T1, Harmonin (Harmonin_PDZ2, PDZ8) (Homo sapiens, UniProt Q9Y6N9); assay: 1H-15N SOFAST-HMQC NMR titration; assay type: binding
T1 construct: gene USH1C; PDZ2 domain, 100 residues
T1 sequence (Q9Y6N9 201-300 limits assumed): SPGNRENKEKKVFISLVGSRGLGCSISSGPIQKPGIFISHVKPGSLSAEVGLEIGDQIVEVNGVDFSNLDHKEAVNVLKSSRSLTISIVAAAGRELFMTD
From the text: 1H-15N SOFAST-HMQC NMR titration on Harmonin (Harmonin_PDZ2, PDZ8) | PDZ8|−|+|−|−|−|−|−|++|−|−

mouse ZO-1 (mZO1-PDZ1) [2] = biological target: T2, mouse ZO-1 (mZO1-PDZ1) (Mus musculus, UniProt P39447); assay: 1H-15N SOFAST-HMQC NMR titration; assay type: binding
T2 construct: gene Tjp1
T2 sequence (P39447 18-110): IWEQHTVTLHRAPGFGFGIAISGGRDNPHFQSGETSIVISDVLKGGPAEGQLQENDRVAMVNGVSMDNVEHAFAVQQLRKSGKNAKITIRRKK

[3] = biological target: T3, InaDL (InaDL_PDZ6, PDZ13) (Homo sapiens, UniProt Q8NI35); assay: 1H-15N SOFAST-HMQC NMR titration; assay type: binding
T3 construct: gene PATJ; PDZ6 domain, 113 residues
T3 sequence (Q8NI35 1058-1170 limits assumed): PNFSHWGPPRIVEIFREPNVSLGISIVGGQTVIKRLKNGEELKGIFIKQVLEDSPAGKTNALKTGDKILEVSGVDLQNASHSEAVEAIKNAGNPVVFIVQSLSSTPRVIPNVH

RHPN2 (RHPN2_PDZ, PDZ7) = biological target: T4, RHPN2 (RHPN2_PDZ, PDZ7) (Homo sapiens, UniProt Q8IUC4); assay: 1H-15N SOFAST-HMQC NMR titration; assay type: binding
T4 construct: PDZ domain, 99 residues
T4 sequence (Q8IUC4 515-593 limits assumed): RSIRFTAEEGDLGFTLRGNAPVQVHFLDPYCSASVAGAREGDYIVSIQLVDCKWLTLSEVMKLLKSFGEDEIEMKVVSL
From the text: 1H-15N SOFAST-HMQC NMR titration on RHPN2 (RHPN2_PDZ, PDZ7) | PDZ7|−|++|++|−|−|−|−|+|−|−

mouse ZO-1 (mZO1-PDZ1) [4] = biological target: T2, mouse ZO-1 (mZO1-PDZ1); assay: 1H-15N SOFAST-HMQC NMR titration; V92E-R96Q mutant abolishes binding

Kd (mouse ZO-1 (mZO1-PDZ1) [2]) [µM]	1H-15N SOFAST-HMQC NMR titration (RHPN2 (RHPN2_PDZ, PDZ7))	SMILES	1H-15N SOFAST-HMQC NMR titration [1]	1H-15N SOFAST-HMQC NMR titration [3]	Kd (mouse ZO-1 (mZO1-PDZ1) [4]) [µM]
750	PDZ7|−|++|++|−|−|−|−|+|−|−	O=C(O)c1ccccc1Nc1cccc(C(F)(F)F)c1 [FLF, 2-[[3-(trifluoro-methyl)phenyl]amino] benzoic acid]	PDZ8|−|+|−|−|−|−|−|++|−|−	PDZ13|n. e.|++|+|−|−|−|−|++|−|−	
	PDZ7|−|++|++|−|−|−|−|+|−|−	CC(=O)O[C@H]1C[C@@]2(C)[C@@H](C[C@@H](O)[C@H]3[C@@]4(C)CC[C@@H](O)[C@@H](C)[C@@H]4CC[C@@]32C)/C1=C(\CCC=C(C)C)C(=O)O [FUA, fusidic acid]			

SMILES	Kd (mouse ZO-1 (mZO1-PDZ1) [2]) [µM]	1H-15N SOFAST-HMQC NMR titration (RHPN2 (RHPN2_PDZ, PDZ7))	1H-15N SOFAST-HMQC NMR titration [1]	1H-15N SOFAST-HMQC NMR titration [3]	Kd (mouse ZO-1 (mZO1-PDZ1) [4]) [µM]
O=C(O)Cc1ccccc1Nc1c(Cl)cccc1Cl [DIF, 2-[(2,6-dichlorophenyl)amino] benzene-acetic acid]		PDZ7|−|++|++|−|−|−|−|+|−|−	PDZ8|−|+|−|−|−|−|−|++|−|−	PDZ13|n. e.|++|+|−|−|−|−|++|−|−	1400
